Assay results published in patent US20100215635A1, “SMALL MOLECULES TO INDUCE WEIGHT LOSS OR TO REDUCE WEIGHT GAIN” (priority 2009, published 2010).

Experiments:
Format in all cases: in vivo, mouse
ob/ob mice [1] = experiment: Effect on body weight of ob/ob obese mice; settings: for Body weight gained: 4.5 mg/kg s.c. daily for 14 days; for Body weight: 4.5 mg/kg s.c. once daily for 14 days
Excerpt: Leptin-deficient ob/ob obese diabetic inbred, adult female mice, weighing 32-36 g at arrival, specified pathogen free (SPF) hygienic category from Charles River VRF1, were used for these experiments. The ob/ob obese mouse is an extensively used animal model for the study of non-insulin-dependent-diabetes mellitus (NIDDM). The mutation was propagated in the C57BL/6J (BL/6) inbred strain. Homozygous obese (ob/ob) animals developed hyperglycemia, hyperinsulinemia and obesity. In these animals gluconeogenesis is enhanced despite their hyperinsulinemic state. The animals were kept in macrolon cages at 22-24° C. and 50-60% humidity, with lighting regimen of 12/12 h light dark. The animals had free access tap water and were fed with a sterilized standard diet (Charles River VRF1, autoclavable). The animals were cared for according to the “Guiding Principles for the Care and Use for Animals” based upon the Helsinki declaration. The ob/ob mice gained weight rapidly and develop a marked obesity by 5-6 weeks of age. […] When arrived they were 5 weeks old (when experiment was performed with CC1) or 4.5 weeks old (when experiment was performed with CC3 and CC19); the treatments started 8 days later in the experiment performed with CC1 and 10 days later in the experiment performed with CC3 and CC19. Experimental groups selected from C57/BL or ob/ob mice were injected subcutaneously at regular intervals once daily for 14 days with CCompound1, CCompound3, or CCompound19 at the dose of 4.5-mg per kg. Other groups selected from C57/BL or ob/ob mice remained untreated during the entire length of the experiment. Body weight was measured every day or every second day for 14 days and then on days 21, 40, and 48. All untreated and treated groups included 5 animals except the CCompound1-treated group of ob/ob mice that included 9 animals. The data are expressed as the average ±standard error of mean. On day 1, body weight was measured first followed by the treatment in the CCompound1-treated group. The treatments were repeated for 14 days with no additional treatment performed during the rest of the observation period. […] In contrast, CCompound1 treated mice gained 2.6-g body weight between day 1 and 14, and also only 2.6-g between day 14 and 48. On day 14 and the following days the differences in body weight were statistically highly significant (P<0.001). It is particularly important that between day 14 and 48, weight gain in the treated group was minimal compared to the control group despite discontinuation of the treatment. […] This feature allows intermittent use of CCompound1 and analogs for weight control. On day 1, first body weight was measured, followed by the treatments with CCompound3 (5 mice) or CCompound19 (5 mice) as indicated in TABLE 4. The treatments were repeated for 14 days with no additional treatment performed during the rest of the observation period. One group of animals (5 mice) served as untreated controls. […] Mice treated with CCompound3 gained 3.3-g body weight between day 1 and 15, and 6.8-g between day 15 and 48. Mice treated with CCompound19 gained 2.6-g body weight between day 1 and 15, and 4.2-g between day 15 and 48. […] Again, both CCompound3 and particularly CCompound19 were effective reducing weight between day 15 and 48 despite discontinuation of the treatment after the last treatment on day 15.

ob/ob mice [2] = experiment: Effect on body weight of ob/ob obese mice; settings: ob/ob mice (Example 3, Table 4), 4.5 mg/kg s.c. once daily for 14 days; day 20
C57/BL mice = experiment: Effect on body weight of C57/BL (non-obese control) mice; settings: for Body weight gained: 4.5 mg/kg s.c. daily for 14 days; for Body weight: 4.5 mg/kg s.c. once daily for 14 days
Method: C57BL6 male mice (10-11 weeks old) were used as non-obese controls of ob/ob mice. These animals were kept under specified pathogen free (SPF) condition and they were fed a standard sterilized diet (Charles River) ad libitum. Experimental groups selected from C57/BL or ob/ob mice were injected subcutaneously at regular intervals once daily for 14 days with CCompound1, CCompound3, or CCompound19 at the dose of 4.5-mg per kg. Other groups selected from C57/BL or ob/ob mice remained untreated during the entire length of the experiment. Body weight was measured every day or every second day for 14 days and then on days 21, 40, and 48. All untreated and treated groups included 5 animals except the CCompound1-treated group of ob/ob mice that included 9 animals. The data are expressed as the average ±standard error of mean. This mouse strain served as the control to the ob/ob mice. On day 1, body weight was measured first followed by the treatment in the CCompound1-treated group. The treatments were repeated for 14 days. […] CCompound1 treated mice also gained 2-g body weight between day 1 and 14, and 4.2-g between day 14 and 48. This small difference between the two groups was not statistically significant. In a follow up experiment using the same treatment regimen, C57/BL mice treated with 6-mg per kg dose of CCompound1 gained 5.6-g weight gain over a 40 days period compared to 5.8-g weight gain in the control group over the same time period. Again, this small difference was not statistically significant.

[3] = ob/ob mice (Example 3), then no treatment, between day 15 and 48 (untreated 11.9 g)
[4] = ob/ob mice (Example 3), between day 1 and 15 (untreated 4.8 g)
[5] = ob/ob mice (Example 3, Table 4), day 1 (before first treatment)
[6] = ob/ob mice (Example 3, Table 4), day 5
[7] = ob/ob mice (Example 3, Table 4), day 10
[8] = ob/ob mice (Example 3, Table 4), day 15
[9] = ob/ob mice (Example 3, Table 4), day 40, P < 0.001 vs no treatment
[10] = ob/ob mice (Example 3, Table 4), day 48, P < 0.001 vs no treatment

With `C[N+](C)(C)CCC=C1c2ccccc2Sc2ccccc21.[I-]` [CCcompound19, N,N,N-trimethyl-3-(9H-thioxanthen-9-ylidene)-propane-1-aminium iodide] the Body weight gained (ob/ob mice [1]; [3]) was 4.2 g, the Body weight gained (ob/ob mice [1]; [4]) was 2.6 g and the Body weight (ob/ob mice [1]; [5]) was 38.1 ± 0.6 g. It also gave a Body weight (ob/ob mice [1]; [6]) of 38.4 ± 0.7 g, a Body weight (ob/ob mice [1]; [7]) of 39.7 ± 0.4 g and a Body weight (ob/ob mice [1]; [8]) of 40.7 ± 0.5 g. It also gave a Body weight (ob/ob mice [1]; [9]) of 43.8 ± 1.3 g, a Body weight (ob/ob mice [1]; [10]) of 44.9 ± 0.8 g and a Body weight (ob/ob mice [2]) of 42.1 ± 0.9 g.

For `CC[N+](C)(CC)CCOCc1ccc2sc3ccccc3c(=O)c2c1` [CCcompound3], the Body weight gained (ob/ob mice [1]; [3]) was 6.8 g, the Body weight gained (ob/ob mice [1]; [4]) was 3.3 g and the Body weight (ob/ob mice [1]; [5]) was 37.0 ± 0.6 g. The Body weight (ob/ob mice [1]; [6]) was 37.5 ± 1.2 g, the Body weight (ob/ob mice [1]; [7]) was 38.5 ± 0.9 g and the Body weight (ob/ob mice [1]; [8]) was 40.3 ± 1.1 g. For the same molecule, the Body weight (ob/ob mice [1]; [9]) was 45.9 ± 0.8 g, the Body weight (ob/ob mice [1]; [10]) was 47.1 ± 1.0 g and the Body weight (ob/ob mice [2]) was 42.2 ± 0.5 g.

`Cc1c(OCC(O)C[N+](C)(C)C)cc2c(=O)c3ccccc3sc2c1C.[Cl-]` (centres unmarked) [CCcompound1, [3-(3,4-Dimethyl-9-oxo-9H-thioxanthen-2-yloxy)-2-hydroxypropyl]trimethyl-ammonium chloride] gave a Body weight gained (C57/BL mice; between day 1 and 14 (untreated 2 g)) of 2 g, a Body weight gained (C57/BL mice; between day 14 and 48 (untreated 5.2 g; difference not statistically significant)) of 4.2 g and a Body weight (C57/BL mice; day 1 (before first treatment)) of 28.0 ± 0.7 g. For the same molecule, the Body weight (C57/BL mice; day 2) was 27.7 ± 0.6 g, the Body weight (C57/BL mice; day 4) was 28.2 ± 0.7 g and the Body weight (C57/BL mice; day 6) was 28.7 ± 0.5 g. The Body weight (C57/BL mice; day 8) was 28.8 ± 0.4 g, the Body weight (C57/BL mice; day 10) was 29.6 ± 0.7 g and the Body weight (C57/BL mice; day 12) was 30.3 ± 1.4 g. The Body weight (C57/BL mice; day 14) was 30.0 ± 0.9 g, the Body weight (C57/BL mice; day 21) was 30.7 ± 1.1 g and the Body weight (C57/BL mice; day 40) was 33.9 ± 0.9 g. For the same molecule, the Body weight (C57/BL mice; day 48) was 34.2 ± 0.8 g, the “Effect on body weight in normal mice” value (C57/BL mice; dose range 4.5-6 mg per kg) was “no effects on the body weight” and the Weight gain (C57/BL mice; follow up experiment, 6 mg per kg, same regimen, over a 40 days period (control 5.8 g; not statistically significant)) was 5.6 g. For the same molecule, the Body weight gained (ob/ob mice [1]; ob/ob mice, then no treatment, between day 14 and 48 (untreated 11.6 g)) was 2.6 g, the Body weight gained (ob/ob mice [1]; ob/ob mice, between day 1 and 14 (untreated 4.4 g)) was 2.6 g and the Body weight (ob/ob mice [1]; ob/ob mice, day 1 (before first treatment)) was 40.4 ± 0.7 g. The Body weight (ob/ob mice [1]; ob/ob mice, day 2) was 40.4 ± 0.6 g, the Body weight (ob/ob mice [1]; ob/ob mice, day 3) was 40.6 ± 0.6 g and the Body weight (ob/ob mice [1]; ob/ob mice, day 4) was 40.8 ± 0.6 g. For the same molecule, the Body weight (ob/ob mice [1]; ob/ob mice, day 5) was 40.7 ± 0.6 g, the Body weight (ob/ob mice [1]; ob/ob mice, day 6) was 41.0 ± 0.6 g and the Body weight (ob/ob mice [1]; ob/ob mice, day 7) was 41.5 ± 0.6 g. The Body weight (ob/ob mice [1]; ob/ob mice, day 8) was 41.9 ± 0.7 g, the Body weight (ob/ob mice [1]; ob/ob mice, day 9) was 42.1 ± 0.7 g and the Body weight (ob/ob mice [1]; ob/ob mice, day 10) was 42.4 ± 0.7 g. It also gave a Body weight (ob/ob mice [1]; ob/ob mice, day 11) of 42.6 ± 0.6 g, a Body weight (ob/ob mice [1]; ob/ob mice, day 12) of 42.7 ± 0.6 g and a Body weight (ob/ob mice [1]; ob/ob mice, day 13) of 42.9 ± 0.6 g. For the same molecule, the Body weight (ob/ob mice [1]; ob/ob mice, day 14, P < 0.001 vs no treatment) was 43.0 ± 0.7 g, the Body weight (ob/ob mice [1]; ob/ob mice, day 19, P < 0.001 vs no treatment) was 44.3 ± 0.9 g and the Body weight (ob/ob mice [1]; ob/ob mice, day 21, P < 0.001 vs no treatment) was 44.5 ± 0.8 g. For the same molecule, the Body weight (ob/ob mice [1]; ob/ob mice, day 45, P < 0.001 vs no treatment) was 45.6 ± 1.1 g and the Body weight (ob/ob mice [1]; ob/ob mice, day 48, P < 0.001 vs no treatment) was 45.6 ± 1.1 g.
